Experimental data reported in patent US10294207B2, “Pyrazole derivatives as TNIK, IKKϵ and TBK1 inhibitor and pharmaceutical composition comprising same” (GREEN CROSS CORPORATION, priority 2015, dated 2019).

Tests used:
[1] = molecular target: T1, TBK1 (Homo sapiens, UniProt Q9UHD2); experiment: TBK1 inhibition, ADP-Glo Kinase Assay; format: biochemical; settings: luminometer
T1 construct: purchased Promega V3991
T1 sequence (Q9UHD2 1-729): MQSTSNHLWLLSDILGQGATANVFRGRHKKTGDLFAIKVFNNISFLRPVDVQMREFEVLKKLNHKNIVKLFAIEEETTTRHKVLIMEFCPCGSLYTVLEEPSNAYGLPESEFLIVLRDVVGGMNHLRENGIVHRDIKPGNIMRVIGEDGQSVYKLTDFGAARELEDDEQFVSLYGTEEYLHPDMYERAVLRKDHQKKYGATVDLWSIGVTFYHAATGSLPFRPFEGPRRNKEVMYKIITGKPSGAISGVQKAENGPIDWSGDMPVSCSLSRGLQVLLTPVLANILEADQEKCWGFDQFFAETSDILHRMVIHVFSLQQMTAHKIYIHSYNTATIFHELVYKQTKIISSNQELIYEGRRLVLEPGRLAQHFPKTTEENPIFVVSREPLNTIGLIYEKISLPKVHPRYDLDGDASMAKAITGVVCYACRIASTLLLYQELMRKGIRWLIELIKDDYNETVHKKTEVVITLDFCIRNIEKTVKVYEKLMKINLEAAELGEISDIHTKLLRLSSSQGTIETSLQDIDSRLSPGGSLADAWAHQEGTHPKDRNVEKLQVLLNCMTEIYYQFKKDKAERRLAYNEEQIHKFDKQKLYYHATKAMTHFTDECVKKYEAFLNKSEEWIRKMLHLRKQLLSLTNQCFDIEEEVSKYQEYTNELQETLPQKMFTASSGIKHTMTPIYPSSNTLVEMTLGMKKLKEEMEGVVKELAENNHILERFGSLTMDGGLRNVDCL
Summary of the method: (§1)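 Each recombinant kinase enzyme system was run per the manufacturer's protocol in 40 mM Tris pH 7.5, 20 mM MgCl2 and 0.1 mg/mL BSA. Kinase activity was detected as ADP formation by ADP-Glo luminescence.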

[2] = molecular target: T2, IKKε (Homo sapiens, UniProt Q14164); experiment: IKKε inhibition, ADP-Glo Kinase Assay; format: biochemical; settings: luminometer
T2 construct: purchased Invitrogen PR8031B
T2 sequence (Q14164 1-716): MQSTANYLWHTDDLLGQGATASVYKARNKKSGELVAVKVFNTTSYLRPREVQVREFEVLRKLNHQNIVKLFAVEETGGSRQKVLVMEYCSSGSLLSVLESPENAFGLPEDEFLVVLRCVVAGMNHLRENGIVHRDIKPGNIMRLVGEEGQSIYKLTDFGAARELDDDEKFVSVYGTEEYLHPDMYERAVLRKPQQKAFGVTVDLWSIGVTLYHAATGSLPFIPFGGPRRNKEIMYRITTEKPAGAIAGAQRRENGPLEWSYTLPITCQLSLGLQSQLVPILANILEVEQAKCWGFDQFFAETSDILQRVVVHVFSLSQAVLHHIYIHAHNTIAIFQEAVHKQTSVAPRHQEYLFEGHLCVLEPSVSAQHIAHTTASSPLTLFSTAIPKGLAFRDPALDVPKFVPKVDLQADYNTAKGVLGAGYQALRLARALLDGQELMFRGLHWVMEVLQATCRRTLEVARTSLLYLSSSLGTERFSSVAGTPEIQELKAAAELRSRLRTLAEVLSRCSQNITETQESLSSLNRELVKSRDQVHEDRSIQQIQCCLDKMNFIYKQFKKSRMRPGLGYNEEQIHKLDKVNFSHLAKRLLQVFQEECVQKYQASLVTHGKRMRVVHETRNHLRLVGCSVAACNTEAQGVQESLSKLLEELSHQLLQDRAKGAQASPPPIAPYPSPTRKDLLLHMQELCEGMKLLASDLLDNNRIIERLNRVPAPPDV
Summary of the method: as §1

Structure (SMILES) | IC50 [1] | IC50 [2]
CCC(NC(=O)c1ccc2[nH]nc(NC(=O)c3ccc(N4CCN(C)CC4)cc3)c2c1)c1ccccc1 (centres unmarked) [Example 187, 3-(4-(4-Methylpiperazin-1-yl)benzamido)-N-(1-phenylpropyl)-1H-indazole-5-carboxamide] | 0.0035 µM | 0.018 µM
CCC(NC(=O)c1ccc2[nH]nc(NC(=O)c3ccc(N4CCOCC4)cc3)c2c1)c1ccccc1 (centres unmarked) [Example 188, 3-(4-Morpholinobenzamido)-N-(1-phenylpropyl)-1H-indazole-5-carboxamide] | 0.0032 µM | 0.017 µM
CN1CCN(c2ccc(C(=O)Nc3n[nH]c4ccc(C(=O)NCc5ccc(F)cc5)cc34)cc2)CC1 [Example 189, N-(4-Fluorobenzyl)-3-(4-(4-methylpiperazin-1-yl)benzamido)-1H-indazole-5-carboxamide] | 0.019 µM | 0.13 µM
CC[C@H](NC(=O)c1ccc2[nH]nc(NC(=O)c3ccc(N4CCN(C)CC4)cc3)c2c1)c1ccccc1 [Example 190, (S)-3-(4-(4-Methylpiperazin-1-yl)benzamido)-N-(1-phenylpropyl)-1H-indazole-5-carboxamide] | 0.34 µM | 1.23 µM
CC[C@@H](NC(=O)c1ccc2[nH]nc(NC(=O)c3ccc(N4CCN(C)CC4)cc3)c2c1)c1ccccc1 [Example 191, (R)-3-(4-(4-Methylpiperazin-1-yl)benzamido)-N-(1-phenylpropyl)-1H-indazole-5-carboxamide] | 0.0013 µM | 0.014 µM
CCC[C@H](NC(=O)c1ccc2[nH]nc(NC(=O)c3ccc(N4CCN(C)CC4)cc3)c2c1)c1ccccc1 [Example 193, (S)-3-(4-(4-Methylpiperazin-1-yl)benzamido)-N-(1-phenylbutyl)-1H-indazole-5-carboxamide] | 0.8 µM | 4.47 µM

Other lines, results leading:

IC50 [1] | IC50 [2] | Structure (SMILES)
0.0075 µM | 0.038 µM | CCC[C@@H](NC(=O)c1ccc2[nH]nc(NC(=O)c3ccc(N4CCN(C)CC4)cc3)c2c1)c1ccccc1 [Example 194, (R)-3-(4-(4-Methylpiperazin-1-yl)benzamido)-N-(1-phenylbutyl)-1H-indazole-5-carboxamide]
0.0072 µM | 0.05 µM | CN1CCN(c2ccc(C(=O)Nc3n[nH]c4ccc(C(=O)NCc5cccc(F)c5)cc34)cc2)CC1 [Example 195, N-(3-Fluorobenzyl)-3-(4-(4-methylpiperazin-1-yl)benzamido)-1H-indazole-5-carboxamide]
0.007 µM | 0.032 µM | CN1CCN(c2ccc(C(=O)Nc3n[nH]c4ccc(C(=O)NCc5ccccc5F)cc34)cc2)CC1 [Example 196, N-(2-Fluorobenzyl)-3-(4-(4-methylpiperazin-1-yl)benzamido)-1H-indazole-5-carboxamide]
0.027 µM | 0.042 µM | CN1CCN(c2ccc(C(=O)Nc3n[nH]c4ccc(C(=O)NC(c5ccccc5)C5CC5)cc34)cc2)CC1 (centres unmarked) [Example 197, N-(Cyclopropyl(phenyl)methyl)-3-(4-(4-methylpiperazin-1-yl)benzamido)-1H-indazole-5-carboxamide]
0.15 µM | 1.28 µM | CC(C)(C)OC(=O)N1CC=C(c2ccc(C(=O)Nc3n[nH]c4ccc(C(=O)NCc5cccs5)cc34)cc2)CC1 [Example 198, tert-Butyl 4-(4-((5-((thiophen-2-ylmethyl)carbamoyl)-1H-indazol-3-yl)carbamoyl)phenyl)-3,6-tetrahydropyridine-1(2H)-carboxylate]
0.0097 µM | 0.14 µM | O=C(NCc1cccs1)c1ccc2[nH]nc(NC(=O)c3ccc(C4=CCNCC4)cc3)c2c1 [Example 199, 3-(4-(1,2,3,6-Tetrahydropyridin-4-yl)benzamido)-N-(thiophen-2-ylmethyl)-1H-indazole-5-carboxamide]
0.003 µM | 0.038 µM | O=C(NCc1cccs1)c1ccc2[nH]nc(NC(=O)c3ccc(OCCN4CCOCC4)cc3)c2c1 [Example 201, 3-(4-(2-Morpholinoethoxy)benzamido)-N-(thiophen-2-ylmethyl)-1H-indazole-5-carboxamide]
